Laboratory results as given in paper PMC10636063, “Progesterone activation of β1-containing BK channels involves two binding sites” (Nature Communications, 2023).
“And” between values parts separate entries of the source, which are not always exact repeats. Equal values may be shown once.

Columns and labels:
Parameters in all cases: species or system mouse
[1] = test system: de-endothelialized MCA segments of KCNMB1-/- mice permeabilized with β1 constructs; experiment: Cerebral artery diameter in vitro, KCNMB1-/- MCA permeabilized with β1 constructs; details: Y32V and W163I substitutions; 50 mM EtOH
Source text: Eight-12 week-old C57BL/6J and KCNMB1^−/− on C57BL/6 background mice of both sexes were deeply anesthetized with isoflurane via inhalation in a tightly sealed jar. […] For de-endothelialized records, the endothelium was removed by passing an air bubble into the vessel lumen for 90 s[30]. This method has been consistently used by our group and validated using endothelium-dependent versus endothelium-independent vasodilators[16],[26]. Arteries were cannulated as previously described by our group[26],[40]. […] PSS was continuously bubbled with an O2/CO2/N2 (21/5/74%) gas mixture and maintained at 35–37 °C. The artery external wall diameter was measured using the automatic edge-detection function of lonWizard software (lonOptix) via Sanyo VCB-3512T camera (Sanyo Electric Co.). Arteries were first incubated at an intravascular pressure of 10 mm Hg for 10 min. Then intravascular pressure was increased to 60 mmHg and held steady throughout the experiment to induce myogenic tone development and maintenance[19],[30],[51]. […] To determine arterial viability, arterial contractility was probed with a high KCl solution at the end of each experiment. […] Like PSS, the high-KCl solution was continuously bubbled with O2/CO2/N2 (21/5/74%) gas mixture and maintained at 35–37 °C. […]

[2] = test system: de-endothelialized, pressurized MCA segments (C57BL/6 male); experiment: EtOH-induced constriction of pressurized MCA in vitro; details: for change in artery diameter (EtOH-induced constriction): Fig 8B, individual replicates
Source text: Eight-12 week-old C57BL/6J and KCNMB1^−/− on C57BL/6 background mice of both sexes were deeply anesthetized with isoflurane via inhalation in a tightly sealed jar. Resistance size MCAs (~100 μm in external diameter) were dissected out of the mouse brains after animal euthanasia with sharp scissors. For de-endothelialized records, the endothelium was removed by passing an air bubble into the vessel lumen for 90 s[30]. This method has been consistently used by our group and validated using endothelium-dependent versus endothelium-independent vasodilators[16],[26]. Arteries were cannulated as previously described by our group[26],[40]. MCAs were cut into 5 to 10 mm-long segments under a microscope (Nikon SMZ645). The segment was cannulated at each end, and the artery exterior was continuously perfused with physiologic sodium saline (PSS) of the following composition (mM): 119 NaCl, 4.7 KCl, 1.2 KH2PO4, 1.6 CaCl2, 1.2 MgSO4, 0.023 EDTA, 11 glucose, 24 NaHCO3, pH=7.4. PSS was continuously bubbled with an O2/CO2/N2 (21/5/74%) gas mixture and maintained at 35–37 °C. The artery external wall diameter was measured using the automatic edge-detection function of lonWizard software (lonOptix) via Sanyo VCB-3512T camera (Sanyo Electric Co.). Arteries were first incubated at an intravascular pressure of 10 mm Hg for 10 min. Then intravascular pressure was increased to 60 mmHg and held steady throughout the experiment to induce myogenic tone development and maintenance[19],[30],[51]. Each artery segment was exposed to PROG, PROG-oxime (in presence and absence of 1 µM paxilline) only once to avoid development of desensitization during repeated applications of PROG-containing solution. To determine arterial viability, arterial contractility was probed with a high KCl solution at the end of each experiment. The high KCl solution was composed of the following composition (mM): 63.7 NaCl, 60 KCl, 1.2 KH2PO4, 1.2 MgSO4, 0.023 EDTA, 11 glucose, 24 NaHCO3, 1.6 CaCl2, pH=7.4. Like PSS, the high-KCl solution was continuously bubbled with O2/CO2/N2 (21/5/74%) gas mixture and maintained at 35–37 °C.

MCA branches (C57BL/6J) = experiment: EtOH-induced cerebrovascular constriction in vivo (cranial window); details: individual replicates; for artery diameter, normalized to time 0: Fig 8E
Protocol: Eight-12 week-old male and female C57BL/6J mice were anesthetized with a mixture of xylazine/ketamine (12/100 mg per kg) and kept anesthetized for the duration of the experiment with subsequent ketamine doses (50 mg/kg of weight) as needed. A catheter was inserted into the carotid artery so that the infusion went straight to the brain rather than towards the thoracic cavity. An area of the skull was cleared of tissue and thinned to expose the branching arteries originating from the MCA on the side the catheter was inserted, above the zygomatic arch, between the ear and eye of the skull[19],[34]. The exposed arteries branching out from the MCA were monitored using a Leica MC170 HD microscope with a mounted camera (Leica M125 C) connected to a computer monitor. Drugs were diluted to their final concentration in sodium saline (0.9% NaCl) and administered via catheter at 0.1 ml/25 g of weight. Cranial window images before and after drug administration were acquired every 60 seconds for subsequent analysis.

CCO [EtOH, ethanol]
constriction of MCA [1]: constriction was still observed
EtOH concentration close to EC100 for MCA constriction [2]: ~50 mM
change in artery diameter (EtOH-induced constriction) ([2]; EtOH 10mM): -3.481 and -2.957 and -4.155 and -5.135 and -0.8602
change in artery diameter (EtOH-induced constriction) ([2]; EtOH 35mM): -3.0303 and -4.876 and -3.6836 and -8.271 and -6.594
change in artery diameter (EtOH-induced constriction) ([2]; EtOH 50mM): -6.879 and -7.897 and -7.7 and -14.4262 and -10.9422
change in artery diameter (EtOH-induced constriction) ([2]; EtOH 75mM): -7.692 and -11.3856 and -9.864 and -10.7879 and -9.705
artery diameter, normalized to time 0 (MCA branches (C57BL/6J); time 0): 1 (5×) and 0.9973
artery diameter, normalized to time 0 (MCA branches (C57BL/6J); time 1): 1 (2×) and 0.9893 and 0.9693 and 1.069 and 0.888
artery diameter, normalized to time 0 (MCA branches (C57BL/6J); time 2): 0.8687 and 0.8304 and 0.7155 and 0.777 and 1.057 and 0.6934
artery diameter, normalized to time 0 (MCA branches (C57BL/6J); time 3): 0.7831 and 1 and 0.7857 and 0.8444 and 1.014 and 0.8086
artery diameter, normalized to time 0 (MCA branches (C57BL/6J); time 4): 0.7004 and 0.7657 and 0.7155 and 0.7188 and 0.9449 and 0.6934
artery diameter, normalized to time 0 (MCA branches (C57BL/6J); time 5): 0.6515 and 0.8304 and 0.7857 and 0.7691 and 0.9335 and 0.8086
artery diameter, normalized to time 0 (MCA branches (C57BL/6J); time 6): 0.7831 and 1 and 0.8849 and 0.8691 and 0.8118 and 0.8086
artery diameter, normalized to time 0 (MCA branches (C57BL/6J); time 7): 0.7397 and 0.7657 and 0.8849 and 0.7997 and 0.85 and 0.8086
artery diameter, normalized to time 0 (MCA branches (C57BL/6J); time 8): 0.7004 and 1 and 0.9584 and 0.8381 and 0.823 and 0.6934
artery diameter, normalized to time 0 (MCA branches (C57BL/6J); time 9): 0.6515 and 0.9469 and 0.8849 and 0.7942 and 0.8049 and 0.6934
artery diameter, normalized to time 0 (MCA branches (C57BL/6J); time 10): 0.6515 and 1 and 0.8849 and 0.8075 and 0.8892 and 0.6934
artery diameter, normalized to time 0 (MCA branches (C57BL/6J); time 11): 0.7831 and 1 and 0.8231 and 0.8249 and 0.8605 and 0.6934
artery diameter, normalized to time 0 (MCA branches (C57BL/6J); time 12): 0.7004 and 0.9469 and 0.9893 and 0.8811 and 0.8191 and 0.888
artery diameter, normalized to time 0 (MCA branches (C57BL/6J); time 13): 0.6515 and 0.8304 and 0.8849 and 0.7651 and 0.797 and 0.6934
artery diameter, normalized (group comparison) (MCA branches (C57BL/6J); Fig 8F): 0.6886 and 0.733 and 0.6331 and 0.6127 and 0.7046 and 0.7541
